The record followed here is patent US20080319017A2, “Non-Anilinic Derivatives of Isothiazol-3(2H)-Thione 1,1-Dioxides As Liver X Receptor Modulators” (ASTRAZENECA AB, priority 2005, published 2008).

In this assay the target is T1, human LXRalpha (Homo sapiens, UniProt Q13133).
T1 construct: human LXRalpha (amino acid 205-447); expressed in transfected cells; host or cells: U2/OS osteosarcoma cells, electroporated with pSGGAL-LXRalpha (pSG5 backbone)
T1 sequence (Q13133 205-447): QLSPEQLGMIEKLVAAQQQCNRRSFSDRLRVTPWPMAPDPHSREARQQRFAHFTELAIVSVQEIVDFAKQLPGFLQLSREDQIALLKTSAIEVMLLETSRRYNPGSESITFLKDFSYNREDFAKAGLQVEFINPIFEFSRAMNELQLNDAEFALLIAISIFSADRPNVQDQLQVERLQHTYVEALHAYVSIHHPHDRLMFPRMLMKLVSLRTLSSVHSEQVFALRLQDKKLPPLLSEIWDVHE
As to the kind of experiment: Transactivation assay (reporter gene assay), GAL4-LXRalpha LBD luciferase in U2/OS cells. The assay is classed as cell-based. Particulars: U2/OS osteosarcoma cells, 48 h incubation, read-out: EC50 for LXRα in the reporter gene assay. How it is done:
Expression vectors were prepared by inserting the ligand binding domain cDNA (complementary DNA) of human LXRalpha (amino acid 205-447) and LXRbeta (amino acid 216-461) in frame with, 3′ to the yeast GAL4 transcription factor DNA binding domain and the nuclear localization signal from the T-antigen of Polyoma Virus in the eucaryotic expression vector pSG5 (Stratagene). The resulting expression vectors pSGGAL-LXRalpha and pSGGAL-LXRbeta were used in cotransfection experiments together with the pGL3 luciferase reporter plasmid containing a minimal SV40 promoter (Promega) and five copies of the UAS GAL4 recognition site. 2.5 μg pSGGAL-LXRalpha or beta were mixed with 25 μg pGL3 5×UAS and 22.5 μg pBluscript (Stratagene) in 0.95 mL ice cold PBS containing approx. 4-9 milj. U2/OS osteosarcoma cells. After a five minute incubation on ice the cell/DNA mixture was electroporated in 0.4 cm cuvettes at 960 μF, 230 V using a BioRad electroporator and diluted to 0.32 milj cells/mL in complete DMEM [Dulbecco's Modified Eagle Medium w/o phenol red, (Gibco 11880-028) including 10% FBS (Foetal Bovine Serum), 1% PEST (Penicillin Streptomycin), 20 mM Hepes, 2 mM L-Glutamine and 0.36% Glucose Gibco 31966-021] medium. […] Luciferase activity was measured as Luminescence in the Wallac Victor reader after 15 min. incubation at room temperature. […]
(In general: Reporter assays use an easily measured gene product as a stand-in for the process of interest.)

As usually defined, the EC50 is the concentration that produces a half-maximal response. Take `CC(C)N1C(=S)C(NC2CCN(c3ncc(C(F)(F)F)cc3Cl)CC2)=C(c2ccccc2)S1(=O)=O` [Example 1, 4-({1-[3-Chloro-5-(trifluoromethyl)pyridin-2-yl]piperidin-4-yl}amino)-2-isopropyl-5-phenylisothiazole-3(2H)-thione 1,1-dioxide]: the EC50 came out at 3.1 µM.
For the compound `CC(C)N1C(=S)C(NCCCCc2ccccc2)=C(c2ccccc2)S1(=O)=O` [Example 2, 2-Isopropyl-5-phenyl-4-[(4-phenylbutyl)amino]isothiazole-3(2H)-thione 1,1-dioxide], the EC50 amounted to 10.5 µM.
